Data set [1] in a line: wn = mass fraction of the nth substance listed. To be noted: 298.15 K, 100 kPa, Liquid, Vibrating tube method.
Data set [2] can be described thus: relative permittivity at zero frequency (dimensionless); wn = mass fraction of the nth substance listed. To be noted: 298.15 K, 100 kPa, Liquid, Coaxial cylinder capacitor.

By mass density is commonly meant the mass of a sample divided by its volume.

The structures appear in SMILES notation. ± gives the expanded uncertainty stated by the source.

With `CC(=O)N(C)C` [N,N-dimethylethanamide] + O, the mass density was 995.7 ± 1 kg/m3 in data set [1] (w1 = 0.1), 996.2 ± 1 kg/m3 in data set [1] (w1 = 0.2) and 997.3 ± 1 kg/m3 in data set [1] (w1 = 0.3).
Take `CN(C)C=O` [dimethylformamide] + O: the “relative permittivity at zero frequency” value stood at 76.8 ± 0.2 in data set [2] (w1 = 0.1), 74.6 ± 0.2 in data set [2] (w1 = 0.2) and 72.2 ± 0.2 in data set [2] (w1 = 0.3). The mass density stood at 996.3 ± 1 kg/m3 in data set [1] (w1 = 0.1), 996.4 ± 1 kg/m3 in data set [1] (w1 = 0.2) and 996.9 ± 1 kg/m3 in data set [1] (w1 = 0.3).

The values are drawn from the NIST ThermoML archive (doi:10.1016/j.jct.2014.05.003).
